The record followed here is patent US20080287375A1, “Selective Glycosidase Inhibitors, Methods of Making Inhibitors, and Uses Thereof” (SIMON FRASER UNIVERSITY, priority 2005, published 2008).

Data set [1] deals with O-GlcNAc modified proteins in rat tissues. Nature of the data set: Oral availability: tissue O-GlcNAc levels in rats fed inhibitor in chow. In kind it is in vivo. As to the method:
To determine if the inhibitor 9c is orally available, it was incorporated into the chow (Lab Diet 5001 Rodent Diet, PMI Nutrition International, LLC). To make the rat chow, 600 g of the ground chow was mixed with 355 ml of water and 5 μL of the inhibitor dissolved in ethanol. Small pieces were then prepared with a pasta machine (Pasta Express, Creative) and dehydrated overnight at 37° C. (Snackmaster Dehydrator, American Harvest). Five sets of chow were made with the following amounts of inhibitor: 0 mg kg^−1 days^−1, 100 or 1000 mg kg^−1 days^−1 of the deprotected (polar) inhibitor, and 100 or 1000 mg kg^−1 day^−1 of the protected (non-polar) inhibitor. […] Ten five-week old healthy Sprague-Dawley rats (two per set of food) were then allowed to feed on the rat chow for three days. The animals were then sacrificed and tissues were collected, homogenized, and analyzed as described above.

Data set [2] has the same test system. Nature of the data set: Western blot of O-GlcNAc modified proteins in tissues of rats after tail vein injection of varying doses. It is filed as in vivo. As for the experimental part: Four rats were treated by tail vein injection of different doses of inhibitor 9c or a buffer control. Two sequential injections were performed approximately 18 hours apart and the rats were then sacrificed 24 hours after the first injection. Western blot analyses using an α-O-GlcNAc antibody (CTD110.6) clearly indicate that the inhibitor 9c easily gains access into a variety of tissues including brain (A), muscle (B) and liver (C) and doses as low as 50 mg kg-1 are almost enough to elicit a maximal increase in O-GlcNAc levels.
Eight give-week old healthy Sprague-Dawley rats (Charles River) were caged in pairs. The animals were allowed to acclimatize to their new surroundings at the Simon Fraser University Animal Care Facilities (SFU ACF) for one week. At 3:00 pm, four rats were given a tail vein injection of 400 μl of inhibitor 9c dissolved in PBS buffer (pH 7.4) at a dose of 50 mg kg^−1. The remaining four rats were given a tail vein injection of 400 μl of PBS as a control. All solutions were pre-sterilized through a 0.2 μm filter (Millipore) and injected with 0.5 mL syringes containing a 28 gauge×0.5″ needle (Terumo) as bolus over 10 seconds. Food was withdrawn at approximately 11:00 pm. At 8:30 am the following morning, the rats were given a second injection. After three hours the rats were anesthetized with isoflurane and a 100 μL blood sample was taken from the jugular vein to measure the fasting blood glucose levels. An intravenous glucose tolerance test (IVGTT) was then performed. A 0.5 mL injection of a 50% w/v solution of glucose dissolved in PBS (pre-sterilized) was administered via the tail vein over 30 seconds. At 10, 20, 30, 40, 60, and 90 minutes after the injection of glucose, a 100 μL sample of blood was taken from the jugular vein. Immediately following blood sampling, a small aliquot of the blood was used to measure the blood glucose concentration using a glucometer (Accu-Check Advantage, Roche) and the remaining blood was stored on ice for 20 minutes and spun down to isolate the serum. Following completion of the IVGTT, the rats were sacrificed with 1:1 mixture of CO2/O2. Tissue samples (brain, muscle, liver, spleen, pancreas, fat) were immediately harvested and flash frozen with liquid nitrogen and stored at −80° C. To homogenize the tissues to obtain a cell extract, tissue were kept frozen while they were ground with a mortal and pestle into a fine powder. 100 mg of the powder was then homogenized in 1 mL of cold lysis buffer (50 mM Tris, 0.5% sodium deoxycholate, 0.1% SDS, 1% nonidet P-40, 1 mM EDTA, 1 mM PMSF, and 1 mM butyl-NAG-thiazoline) using two 10 second pulse on a Jenke and Kunkel Ultra-Turrax tissue homogenizer tissue homogenizer. Tissues were then spun down at 13,000 rpm in a microcentrifuge (eppendrof) to remove the cell debris. The soluble cell extract was then analyzed for levels O-GlcNAc modified proteins using Western blot analysis as described above for the cell studies.

Where [3] appears, read: rats fed inhibitor in food for three days.

Where only a bound is given, the exact number is not on record here.

`CCCC1=N[C@@H]2[C@@H](O)[C@H](O)[C@@H](CO)O[C@@H]2S1` [Compound 9c, 1,2-dideoxy-2′-propyl-α-D-glucopyranoso-[2,1-d]-2′-thiazoline]: the “cellular levels of O-GlcNAc modified proteins in brain tissue, oral 100 mg/kg/day” value in data set [1] (rats fed inhibitor in chow for three days) is listed as “marked increases”. Moreover, the “cellular levels of O-GlcNAc modified proteins in brain tissue, oral 1000 mg/kg/day” value in data set [1] (rats fed inhibitor in chow for three days, compared with 100 mg/kg/day) is on record as “even greater”. Moreover, in data set [1] (setting [3]), the “O-GlcNAc modified proteins in brain, muscle, pancreas, fat and spleen, oral 100 mg kg^−1 day^−1 (FIG. 12 legend)” value is listed as “large increases”; the “O-GlcNAc modified proteins in tissues, oral 1000 mg kg^−1 days^−1 (FIG. 12 legend)” value is “slightly greater increases”. For the same compound, in data set [2] (tail vein injection), the “discomforts of treated rats compared to the control rat” value is reported as “did not appear to show any discomforts”, the “dose enough to elicit the maximal increase in O-GlcNAc modified proteins” value came out at 50 mg/kg, the “time for which the inhibitor retains an effect” value was not below 6 h and the “time in which the inhibitor gains access to a wide variety of tissues” value is reported as “less than 24 hours”. In addition, the “cellular levels of O-GlcNAc modified proteins in brain tissue” value in data set [2] (tail vein injection, 50, 120 and 300 mg/kg, compared to controls) is “marked increases”. In addition, in data set [2] (tail vein injection, brain, muscle, liver), the “dose almost enough to elicit a maximal increase in O-GlcNAc levels” value is approximately 50 mg/kg.
